Tests used:
MRL/lpr mice [1] = test: Kidney histopathological scores of lupus nephritis in MRL/lpr mouse model of SLE; type: in vivo; conditions: week 18
Excerpt: (§1) Female MRL/MpJ-Fas lpr/J mice (18-20 g, 7-8 weeks old) were obtained from The Jackson Laboratory. These mice are homozygous for the lymphoproliferation spontaneous mutation (Fas^lpr), and show systemic autoimmunity, massive lymphadenopathy associated with proliferation of aberrant T cells, arthritis, and immune complex glomerulonephrosis. Thus, these mice are useful as a model in the study of systemic lupus erythematosus (SLE).
(§2) Animals were housed and handled in a temperature-controlled environment with a 12-h light/12-h dark cycle. […] The protocols and procedures involving the care and use of animals were approved by the Institutional Animal Care and Use Committee (IACUC) of WuXiAppTec (Shanghai) Co., Ltd. (Shanghai, China).
At the end of the study, the spleen and lymph nodes were collected and weighed. […] The histopathological score was evaluated microscopically in a blinded manner, vide infra.
The histopathological score was evaluated microscopically in a blinded manner. The […] glomerulonephritis score (GN score) was evaluated using scoring from 0 to 4 (0—normal; 1—mild, focal or early proliferation; 2—moderate or definite proliferation and increased matrix; 3—diffuse and focal or diffuse proliferation; 4—severe diffuse proliferation with crescent/sclerosis). […]

MRL/lpr mice [2] = test: Flow cytometry lymphocyte counts in PBMC, spleen and kidney of MRL/lpr mice; type: in vivo, mouse; conditions: 100 mg/kg po qd
Excerpt: as §1, §2
The spleens and kidneys were harvested from the mice at the conclusion of the study (week 18) and digested into single-cell suspensions. Peripheral blood mononuclear cell (PBMC) were obtained after lysing red blood cells in the whole blood. Cells were stained with the following florescence-labelled antibodies: PerCP-Cyanine5.5-conjugated anti-mouse CD8a (BD Biosciences), AF700-conjugated anti-mouse CD3 (BD Biosciences), PE-eFluor610-conjugated anti-mouse B220 (BD Biosciences), e506-conjugated anti-mouse CD45 (BD Biosciences), BV605-conjugated anti-mouse CD138 (BioLegend), and BV711-conjugated anti-mouse CD4 (BioLegend).
All cells were primarily gated on live lymphocytes based on forward scatter (FCS) and side scatter (SSC). Samples were analyzed on a flow cytometer (BD FACSCalibur, USA) to count the number of each subtype of lymphocytes.
Of note, the reduction of double negative T cells were most significant compared to other lymphocytes. […] Without being bound by theory, the reduced infiltration by pro-inflammatory CD4+ cells and double-negative T cells may be responsible in part for the observed efficacy in treating lupus nephritis.

MRL/lpr mice [3] = test: Lymph node (lymphadenopathy) score in MRL/lpr mouse model of SLE; type: in vivo; conditions: week 18, p<0.0001 vs vehicle
Excerpt: as §1, §2
Lymph nodes were scored weekly throughout the study, and were expressed using a scoring system from 0 to 6 based on the diameter of lymph nodes (0—normal; 1—<1 cm in one site; 2—<1 cm in two sites; 3—<1 cm in three sites; 4—>1 cm in one site and <1 cm in two sites); 5—>1 cm in two sites and <1 cm in one site; 6—>1 cm in three sites).

MRL/lpr mice [4] = test: Serum anti-dsDNA autoantibody ELISA in MRL/lpr mouse model of SLE; type: in vivo; conditions: end of study
Excerpt: as §1, §2
Anti-dsDNA autoantibody levels were measured by ELISA. Briefly, a 96-well flat plate was coated with 10 μg/mL calf thymus ds-DNA (Sigma-Aldrich, MA, USA) at 4° C. overnight. After washing with PBS containing 0.05% Tween 20 (PBS-T) and blocking with 1% bovine serum albumin, serum samples (4000× dilution) were added and incubated for 1 h at room temperature. […] Lastly, ultra TMB-ELISA substrate solution (Pierce Biotechnology, IL, USA) was added and incubated for another 30 min, and the OD values at […] were recorded after the reaction was stopped.

MRL/lpr mice [5] = test: Skin lesion score in MRL/lpr mouse model of SLE; type: in vivo; conditions: week 18, p<0.0001 vs vehicle
Excerpt: as §1, §2
Skin lesions were scored every week starting from week 12 and were expressed using a scoring system from 0 to 4 (0—normal; 1—small lesion with diameter between 2 to 4 mm; 2—lesion area
<0.5 cm^2; 3—lesion area between 0.5 cm^2 to 1 cm^2; 4—lesion area >1 cm^2).

MRL/lpr mice [6] = test: Urine protein (Coomassie Brilliant Blue assay) in MRL/lpr mouse model of SLE; type: in vivo; conditions: week 18
Excerpt: as §1, §2
Urine protein was individually evaluated in each mouse on a biweekly basis using Coomassie Brilliant Blue (CBB) assay with a urine protein test kit (Nanjing Jiancheng Biotechnology Institute, Jiangsu, China).

Mcl-1 = Mcl-1 (Homo sapiens, UniProt Q07820); test: FP saturation binding of fluorescent probe to Mcl-1; conditions: 2 nM probe
Excerpt: Bcl-XL, and Mcl-1, respectively.

[7] = 30 mg/kg po qd, p<0.05 vs vehicle
[8] = 100 mg/kg po qd, p<0.0001 vs vehicle

Sequence of Mcl-1 (Q07820 whole entry): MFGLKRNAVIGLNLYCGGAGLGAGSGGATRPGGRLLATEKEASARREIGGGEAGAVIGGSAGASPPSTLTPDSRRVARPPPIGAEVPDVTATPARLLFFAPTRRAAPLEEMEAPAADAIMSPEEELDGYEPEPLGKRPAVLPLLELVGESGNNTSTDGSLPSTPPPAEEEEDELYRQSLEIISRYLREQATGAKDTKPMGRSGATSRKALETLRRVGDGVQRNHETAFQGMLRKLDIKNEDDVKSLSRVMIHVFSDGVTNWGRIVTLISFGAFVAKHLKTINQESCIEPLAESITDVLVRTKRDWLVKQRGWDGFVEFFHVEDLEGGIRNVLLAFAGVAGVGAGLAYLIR

Compound | individual and total lupus nephritis pathological scores, significance (MRL/lpr mice [1]; 100 mg/kg po qd) | pathological score (glomerulonephritis, interstitial nephritis, vasculitis) (MRL/lpr mice [1]; 30 and 100 mg/kg po qd) | number of lymphocytes in PBMC (total, T, CD4+ T, CD8+ T, double-negative T, B, activated B, plasmablasts, plasma cells, CD138+ cells) (MRL/lpr mice [2]; week 18, PBMC (FIG. 6)) | number of pro-inflammatory CD4+ T cells and double-negative T cells in the kidney (MRL/lpr mice [2]; week 18, kidney (FIG. 8)) | number of lymphocytes in spleen (total, T, CD4+ T, CD8+ T, double-negative T, B, activated B, plasmablasts, plasma cells, CD138+ cells) (MRL/lpr mice [2]; week 18, spleen (FIG. 7)) | lymphadenopathy score (0 to 6) (MRL/lpr mice [3]; 30 mg/kg po qd) | lymphadenopathy score (0 to 6) (MRL/lpr mice [3]; 100 mg/kg po qd) | serum anti-dsDNA autoantibody level, % of the vehicle group (MRL/lpr mice [4]; [7]) | serum anti-dsDNA autoantibody level, % of the vehicle group (MRL/lpr mice [4]; [8]) | skin lesion score (MRL/lpr mice [5]; 30 mg/kg po qd) | skin lesion score (MRL/lpr mice [5]; 100 mg/kg po qd) | urine protein level (MRL/lpr mice [6]; [7]) | urine protein level (MRL/lpr mice [6]; [8]) | Kd (Mcl-1)
O=C(NS(=O)(=O)c1ccc(NC[C@H]2COCCO2)c([N+](=O)[O-])c1)c1ccc(N2CCN(CC3=C(c4ccc(Cl)cc4)CC4(CCC4)CC3)CC2)cc1Oc1cnc2[nH]ccc2c1 [Compound 1, (S)-N-((4-(((1,4-dioxan-2-yl)methyl)amino)-3-nitrophenyl)sulfonyl)-2-((1H-pyrrolo[2,3-b]pyridin-5-yl)oxy)-4-(4-((6-(4-chlorophenyl)spiro[3.5]non-6-en-7-yl)methyl)piperazin-1-yl)benzamide] | Statistical significance was achieved | dose-dependently reduced | significantly reduced | significantly reduced | significantly reduced | 2.7±0.4 | 1.6±0.4 | 76.8% | 56.4% | significantly reduced | significantly reduced | 536.1 ± 146.8 mg/L | 266.8 ± 37.7 mg/L | –
Flu-BID: Fluorescein labeled BID (79-99) peptide, fluorescent probe in FP assay for Mcl-1 | – | – | – | – | – | – | – | – | – | – | – | – | – | 6.9 ± 0.9 nM

Source: US12648945B2, “Compositions and methods for treating systemic lupus erythematosus” (ASCENTAGE PHARMA (SUZHOU) CO., LTD., priority 2020, dated 2026)
